One assay concerns Nedd4. As to the kind of experiment: In vitro autoubiquitination of HECT E3 Nedd4. The format is biochemical. The protocol:
It was then evaluated whether 4-[4-(5-nitro-furan-2-ylmethylene)-3,5-dioxo-pyrazolidin-1-yl]-benzoic acid methyl acid blocks autoubiquitination of both RING finger E3s (Mdm2) and HECT E3s (Nedd4) in vitro.
5 pmole per experimental point of bacterially expressed GST-Mdm2 (or GST-Nedd) is coupled to glutathione Sepharose (GS) for 30 minutes at room temperature with tumbling, followed by 3× wash with 50 mM Tris pH 7.5. Following this, 20 μl of 1× buffer is added (40 μl 10× reaction buffer*, 40 μl 10× PCK**, 320 μl dH2O). The test compound in DMSO is then added to the desired concentration with an equal volume of DMSO used as a control. Samples are incubated with shaking for 1 hr at 23° C. To carry out the reaction, a pre-made cocktail of Rabbit E1 (Calbiochem #6620700)/UbCH5B/^32P Ub cocktail (1 μl/0.5 μl/1 μl) is added followed by 15 minutes shaking at 30° C. The reaction is terminated by addition of 8 μl 4× reducing SDS-PAGE loading buffer. After dissociating proteins from the beads at 100° C. for 2 minutes, samples are resolved on 6% PAGE followed by exposure of the dried gel to phosphor screen. Note: ^32P Ub is derived from GST-Ub that has been engineered to include a PKA phosphorylation site. This fusion protein is purified on glutathione Sepharose, phosphorylated, following this, the ^32P Ub ubiquitin is cleaved and purified away from the thrombin.

For a further assay, the system named is IκBα. As to the kind of experiment: TNFα-induced IκBα degradation in cells. The format is cell-based.
For a further assay, the system named is cyclin E. Description: Degradation of in vitro translated cyclin E in S-100 cytosolic extract. The format is biochemical. From the text:
Cytosolic extracts from cells (S-100) contain all the components for ubiquitination and proteasomal degradation. To further evaluate 4-[4-(5-nitro-furan-2-ylmethylene)-3,5-dioxo-pyrazolidin-1-yl]-benzoic acid methyl acid, we made use of in vitro translated cyclin E, which is degraded in S-100 in a time-dependent manner (FIG. 3, upper panel, lanes 1-4).

Where a SMILES comes first, the peptide text is derived from it. [ ]: non-standard residue; d: D form. The star is where a group is joined. Nle = CCCC[C@H](N)C(=O)O; Cbz = O=C(OCc1ccccc1)*

For `O=c1nc2n(-c3cccc(Cl)c3)c3ccc([N+](=O)[O-])cc3cc-2c(=O)[nH]1` [98CO7, 10-(-3-chloro-phenyl)-7-nitro-10H-pyrimido[4,5-b]quinoline-2,4-dione, reference compound], the “autoubiquitination of Nedd4” value in the assay with Nedd4 is “only has very moderate effects”. For the molecule `CCCC[C@@H](C=O)NC(=O)[C@H](CC(C)C)NC(=O)[C@H](CC(C)C)NC(C)=O` [ALLN, reference compound] (Ac-Leu-Leu-[Nle]-aldehyde), the “TNFα-induced IκBα degradation” value in the assay on IκBα is on record as “prevents TNFα-induced IκBα degradation”. With `CC(C)C[C@@H](C=O)NC(=O)[C@H](CC(C)C)NC(=O)[C@H](CC(C)C)NC(=O)OCc1ccccc1` [MG132, reference compound] (Cbz-Leu-Leu-Leu-aldehyde), the “cyclin E degradation in S-100” value with cyclin E (no exogenous E1) is “block cyclin E degradation”. Moreover, the “cyclin E degradation in S-100 after addition of purified exogenous E1” value in the assay on cyclin E (purified exogenous E1 added to the reaction mixture) is on record as “unable to overcome the block in cyclin E degradation”.

The record behind these values is patent publication US8242160B2, “Inhibitors of ubiquitin E1” (The United States of America, as represented by the …, priority 2005, dated 2012).
